The text below walks through data of ChEMBL document CHEMBL1201862, “PubChem BioAssay data set” (2004).

The source made the active and inactive calls. A value given as a limit tells only on which side of the number the result lay.

Experiment [1] concerns the target E3 ubiquitin-protein ligase XIAP (Homo sapiens, UniProt P98170). Kind of experiment: Counter Screen using XIAP-Bir3 for Chemical Antagonists of Bir1/2 domains of IAP-family anti-apoptotic proteins. [Related pubchem assays (depositor defined):AID1018, AID1449, AID1514, AID1638, AID1749, AID1750, AID488957, AID488963]. A general note: The purpose of a counterscreen is to sort out artefacts and off-target activity.

The target in experiment [2] is G-protein coupled receptor 35 (Homo sapiens, UniProt Q9HC97). The experiment is described as follows: inhibition of zaprinast-stimulated GPR35 beta-arrestin translocation – imaging, U2OS, beta-arrestin-GFP, zaprinast agonist, primary screen (AID 2058).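 Also: antagonist potency meaning inhibition of agonist-induced arrestin redistribution.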 It is filed as functional.
Experiment [3] can be described thus: viability of uninfected HEp-2 cells – cell-based, HTS, cytotoxicity control for RSV inhibitor project, dose response (AID 2410). It is filed as functional. The following applies: human respiratory syncytial virus.
Experiment [4] has as its system BJ. Kind of experiment: growth inhibition of engineered Ras-driven BJ cells – cell-based, alamar blue fluorescence, cherrypicked samples, dose response (AID 2631).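 Also: confirmatory dose-response assay in RAS-dependent BJ fibroblasts engineered with TERT, LT and ST, with cytotoxicity read by fluorescence.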 It is filed as functional. The following applies: Homo sapiens.
Experiment [5] deals with Cytochrome P450 3A4 (Homo sapiens, UniProt P08684).
The nature of experiment [6]: cells. It counts as functional, cell-based.
The target in experiment [7] is T1, Alkaline phosphatase, tissue-nonspecific isozyme (Homo sapiens, UniProt P05186).
T1 sequence (P05186 whole entry): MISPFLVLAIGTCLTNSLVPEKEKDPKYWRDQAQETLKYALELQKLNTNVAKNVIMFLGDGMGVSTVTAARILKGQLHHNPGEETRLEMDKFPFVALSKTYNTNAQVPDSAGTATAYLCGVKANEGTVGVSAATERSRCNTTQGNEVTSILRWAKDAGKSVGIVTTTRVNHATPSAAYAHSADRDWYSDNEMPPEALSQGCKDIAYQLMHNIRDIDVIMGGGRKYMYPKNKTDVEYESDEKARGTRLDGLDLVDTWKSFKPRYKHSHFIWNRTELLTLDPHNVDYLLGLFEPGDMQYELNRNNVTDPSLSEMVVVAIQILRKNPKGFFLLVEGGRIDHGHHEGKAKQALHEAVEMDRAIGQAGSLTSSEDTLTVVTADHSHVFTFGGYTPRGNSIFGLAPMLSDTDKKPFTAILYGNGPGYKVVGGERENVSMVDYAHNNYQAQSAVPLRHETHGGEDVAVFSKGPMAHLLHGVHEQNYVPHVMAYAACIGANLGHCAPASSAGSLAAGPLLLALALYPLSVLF
The experiment is described as follows: activation of tissue-nonspecific alkaline phosphatase – biochemical, TNAP isozyme, mouse IAP uHTS hits, selectivity assay for mouse IAP activator project, dose response (AID 488880). It is filed as functional.

Experiment [8] addresses Intestinal-type alkaline phosphatase (Mus musculus, UniProt P24822). Kind of experiment: mouse intestinal alkaline phosphatase activators, dose response, biochemical, luminescence, uHTS hits (AID 488783). It counts as functional.
Experiment [9] addresses T2, Caspase-3 (Homo sapiens, UniProt P42574).
T2 sequence (P42574 whole entry): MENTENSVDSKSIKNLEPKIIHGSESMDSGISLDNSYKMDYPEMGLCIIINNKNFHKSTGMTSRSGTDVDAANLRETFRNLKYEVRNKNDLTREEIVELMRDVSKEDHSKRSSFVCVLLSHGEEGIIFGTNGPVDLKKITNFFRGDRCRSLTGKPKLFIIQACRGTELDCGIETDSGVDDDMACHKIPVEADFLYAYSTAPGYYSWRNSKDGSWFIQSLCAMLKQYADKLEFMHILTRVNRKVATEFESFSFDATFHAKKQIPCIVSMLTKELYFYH
The experiment is described as follows: Dose-response confirmation of uHTS inhibitor hits of Sentrin-Specific Protease 8 in a Caspase-3 Fluorescence assay. It is filed as functional.

Experiment [10] concerns the target T3, Sentrin-specific protease 8 (Homo sapiens, UniProt Q96LD8).
T3 sequence (Q96LD8 whole entry): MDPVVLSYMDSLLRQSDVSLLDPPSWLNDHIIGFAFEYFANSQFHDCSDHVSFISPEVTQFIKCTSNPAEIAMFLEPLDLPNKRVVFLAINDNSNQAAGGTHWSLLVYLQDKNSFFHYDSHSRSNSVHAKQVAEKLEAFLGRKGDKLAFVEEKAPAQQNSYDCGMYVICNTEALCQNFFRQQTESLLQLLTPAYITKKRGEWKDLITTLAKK
It is filed as functional.

The nature of experiment [11]: inhibition of ARNT PAS-B/TACC3 complex formation – biochemical, AlphaScreen, cherry-picked samples, confirmation (AID 651703).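 Also: His-tagged ARNT PAS-B domain paired with GST-TACC3 E629A dimer coactivator fragment; potency of inhibitors that break up the complex and lower AlphaScreen signal.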 It counts as functional, Homo sapiens. On the technique in general: Bead proximity is the source of the signal in Alpha formats.
Experiment [12] concerns the target Cystic fibrosis transmembrane conductance regulator/Golgi-associated PDZ and coiled-coil motif-containing protein (Homo sapiens, UniProt P13569+Q9HD26). The experiment is described as follows: potency against CAL PDZ-peptide interaction – biochemical, fluorescence polarization, Cerulean-tagged CAL PDZ, cherry-picks, dose response (AID 504773). (Fluorescence polarisation rises when a labelled molecule tumbles more slowly, as on binding a larger partner.)

Experiment [13] addresses Beta-galactosidase (Escherichia coli, UniProt Q8VNN2). Kind of experiment: detection-enzyme interference by beta-gal modulators – biochemical, E. coli enzyme, set 3, artefact control for CCR6 antagonist project, dose response (AID 504712). It is filed as functional.
Experiment [14] deals with Sphingosine 1-phosphate receptor 1 (Homo sapiens, UniProt P21453). It is filed as functional.
Experiment [15] in a line: viability loss in HeLa cells – cytotoxicity control for MgcRacGAP inhibitor project, dose response (AID 624300). It counts as functional.
In experiment [16] the target is T4, Rac GTPase-activating protein 1 (Homo sapiens, UniProt Q9H0H5).
T4 sequence (Q9H0H5 whole entry): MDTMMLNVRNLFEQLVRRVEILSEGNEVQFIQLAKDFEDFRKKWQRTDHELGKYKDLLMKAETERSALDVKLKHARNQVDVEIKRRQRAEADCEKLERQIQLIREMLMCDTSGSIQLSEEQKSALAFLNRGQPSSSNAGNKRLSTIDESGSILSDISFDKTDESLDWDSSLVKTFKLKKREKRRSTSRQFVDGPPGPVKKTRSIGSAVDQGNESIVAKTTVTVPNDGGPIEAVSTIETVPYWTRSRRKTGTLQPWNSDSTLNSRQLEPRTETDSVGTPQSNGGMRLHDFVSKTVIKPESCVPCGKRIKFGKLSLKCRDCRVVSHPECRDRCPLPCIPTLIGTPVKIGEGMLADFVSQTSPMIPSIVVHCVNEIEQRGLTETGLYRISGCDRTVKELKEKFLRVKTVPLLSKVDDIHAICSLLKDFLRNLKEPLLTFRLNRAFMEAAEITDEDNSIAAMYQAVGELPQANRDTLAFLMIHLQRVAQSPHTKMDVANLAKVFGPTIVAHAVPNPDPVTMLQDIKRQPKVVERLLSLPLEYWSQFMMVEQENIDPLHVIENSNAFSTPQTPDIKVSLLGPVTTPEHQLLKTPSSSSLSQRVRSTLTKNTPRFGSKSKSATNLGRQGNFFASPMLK
Kind of experiment: blockers of MgcRacGAP-driven Rac1 GTP hydrolysis – biochemical, ADP Hunter fluorescence, primary and confirmatory, confirmation (AID 624330). It is filed as functional.

Experiment [17] in a line: alpha-synuclein stem-loop luciferase translation blockers – H4 neuroglioma cells, luminescence, confirmation (AID 1988). It counts as functional, cell-based.
Experiment [18] is described as follows: Luminescence Cell-Based Dose Response HTS to Identify Inhibitors of 5'UTR Stem-Loop Driven Prion Protein mRNA Translation in H4 Neuroglioblastoma Cells. [Related pubchem assays: 1827 (Project Summary), 1813 (Primary HTS)]. It is filed as functional.

Sequence of Sphingosine 1-phosphate receptor 1 (P21453 whole entry): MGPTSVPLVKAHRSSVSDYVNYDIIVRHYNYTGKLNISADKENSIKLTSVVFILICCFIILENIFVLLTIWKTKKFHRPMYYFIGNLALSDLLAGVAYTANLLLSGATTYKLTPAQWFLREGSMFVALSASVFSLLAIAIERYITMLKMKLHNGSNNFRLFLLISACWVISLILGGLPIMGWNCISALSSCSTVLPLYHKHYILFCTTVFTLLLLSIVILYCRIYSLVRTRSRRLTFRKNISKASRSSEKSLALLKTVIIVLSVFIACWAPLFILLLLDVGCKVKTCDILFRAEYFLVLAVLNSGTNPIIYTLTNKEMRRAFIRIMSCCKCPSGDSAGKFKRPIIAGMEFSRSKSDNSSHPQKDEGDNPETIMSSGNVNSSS
Sequence of G-protein coupled receptor 35 (Q9HC97 whole entry): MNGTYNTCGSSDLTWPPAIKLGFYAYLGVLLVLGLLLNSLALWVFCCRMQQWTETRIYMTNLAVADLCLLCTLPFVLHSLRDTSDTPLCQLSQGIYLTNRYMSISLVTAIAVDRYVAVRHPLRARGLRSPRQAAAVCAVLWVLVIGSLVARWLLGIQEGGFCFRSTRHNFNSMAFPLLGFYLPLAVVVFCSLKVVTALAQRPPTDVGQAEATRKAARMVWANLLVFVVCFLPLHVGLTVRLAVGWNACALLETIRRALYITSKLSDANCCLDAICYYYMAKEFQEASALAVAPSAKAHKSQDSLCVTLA
Sequence of Cytochrome P450 3A4 (P08684 whole entry): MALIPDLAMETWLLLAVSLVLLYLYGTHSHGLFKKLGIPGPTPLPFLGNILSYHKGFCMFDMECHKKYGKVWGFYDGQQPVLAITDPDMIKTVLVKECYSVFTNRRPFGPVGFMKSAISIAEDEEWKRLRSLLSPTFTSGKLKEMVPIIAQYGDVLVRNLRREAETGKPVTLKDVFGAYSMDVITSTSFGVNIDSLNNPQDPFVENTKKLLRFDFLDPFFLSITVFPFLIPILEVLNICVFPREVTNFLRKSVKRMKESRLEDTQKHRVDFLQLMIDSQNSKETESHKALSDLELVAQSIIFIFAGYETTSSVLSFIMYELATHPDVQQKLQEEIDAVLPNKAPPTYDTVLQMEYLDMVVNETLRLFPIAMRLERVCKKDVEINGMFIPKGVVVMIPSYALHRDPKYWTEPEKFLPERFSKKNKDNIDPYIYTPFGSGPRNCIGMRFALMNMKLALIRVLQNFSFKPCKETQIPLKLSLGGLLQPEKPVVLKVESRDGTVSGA
Sequence of Beta-galactosidase (Q8VNN2 whole entry): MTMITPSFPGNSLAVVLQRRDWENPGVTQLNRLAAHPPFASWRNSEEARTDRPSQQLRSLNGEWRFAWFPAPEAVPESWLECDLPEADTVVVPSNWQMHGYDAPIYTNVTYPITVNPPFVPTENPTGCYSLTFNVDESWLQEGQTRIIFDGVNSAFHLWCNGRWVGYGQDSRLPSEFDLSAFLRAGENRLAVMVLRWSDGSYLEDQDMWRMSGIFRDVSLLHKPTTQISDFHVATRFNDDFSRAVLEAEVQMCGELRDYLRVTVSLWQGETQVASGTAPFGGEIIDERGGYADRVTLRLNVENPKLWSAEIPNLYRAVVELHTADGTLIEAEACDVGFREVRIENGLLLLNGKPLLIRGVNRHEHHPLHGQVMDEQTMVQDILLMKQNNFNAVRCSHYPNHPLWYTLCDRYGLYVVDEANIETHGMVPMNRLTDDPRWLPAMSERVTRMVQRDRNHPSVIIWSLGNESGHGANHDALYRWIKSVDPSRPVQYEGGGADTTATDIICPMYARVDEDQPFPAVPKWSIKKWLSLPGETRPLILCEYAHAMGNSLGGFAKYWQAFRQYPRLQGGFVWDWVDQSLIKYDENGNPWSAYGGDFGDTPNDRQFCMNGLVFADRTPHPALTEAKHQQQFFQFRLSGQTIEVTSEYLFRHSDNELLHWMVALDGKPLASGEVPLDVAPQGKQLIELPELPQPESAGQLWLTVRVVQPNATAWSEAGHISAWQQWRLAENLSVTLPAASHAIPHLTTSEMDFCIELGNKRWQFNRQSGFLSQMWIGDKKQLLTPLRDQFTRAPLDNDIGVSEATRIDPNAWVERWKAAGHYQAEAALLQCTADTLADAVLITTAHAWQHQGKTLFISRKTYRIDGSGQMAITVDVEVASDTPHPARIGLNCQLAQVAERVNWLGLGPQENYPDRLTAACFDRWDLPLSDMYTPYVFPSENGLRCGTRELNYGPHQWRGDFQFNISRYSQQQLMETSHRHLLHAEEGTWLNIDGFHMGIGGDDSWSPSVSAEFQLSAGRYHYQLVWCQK
Sequence of Intestinal-type alkaline phosphatase (P24822 whole entry): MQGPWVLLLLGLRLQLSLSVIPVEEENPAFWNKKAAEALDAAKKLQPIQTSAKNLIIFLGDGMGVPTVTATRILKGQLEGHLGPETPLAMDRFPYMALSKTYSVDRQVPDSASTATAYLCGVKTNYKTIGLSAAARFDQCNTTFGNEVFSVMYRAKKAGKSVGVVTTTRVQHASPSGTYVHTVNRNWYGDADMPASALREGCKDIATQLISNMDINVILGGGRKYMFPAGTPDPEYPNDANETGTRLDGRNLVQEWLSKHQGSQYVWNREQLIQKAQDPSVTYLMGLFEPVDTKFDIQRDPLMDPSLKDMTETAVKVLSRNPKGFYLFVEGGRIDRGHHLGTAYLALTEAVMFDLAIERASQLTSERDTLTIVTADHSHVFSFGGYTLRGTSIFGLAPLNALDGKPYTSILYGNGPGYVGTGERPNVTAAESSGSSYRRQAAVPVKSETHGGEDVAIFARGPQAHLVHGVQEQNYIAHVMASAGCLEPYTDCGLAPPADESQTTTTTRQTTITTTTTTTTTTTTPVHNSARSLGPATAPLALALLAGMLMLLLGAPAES
Sequence of E3 ubiquitin-protein ligase XIAP (P98170 whole entry): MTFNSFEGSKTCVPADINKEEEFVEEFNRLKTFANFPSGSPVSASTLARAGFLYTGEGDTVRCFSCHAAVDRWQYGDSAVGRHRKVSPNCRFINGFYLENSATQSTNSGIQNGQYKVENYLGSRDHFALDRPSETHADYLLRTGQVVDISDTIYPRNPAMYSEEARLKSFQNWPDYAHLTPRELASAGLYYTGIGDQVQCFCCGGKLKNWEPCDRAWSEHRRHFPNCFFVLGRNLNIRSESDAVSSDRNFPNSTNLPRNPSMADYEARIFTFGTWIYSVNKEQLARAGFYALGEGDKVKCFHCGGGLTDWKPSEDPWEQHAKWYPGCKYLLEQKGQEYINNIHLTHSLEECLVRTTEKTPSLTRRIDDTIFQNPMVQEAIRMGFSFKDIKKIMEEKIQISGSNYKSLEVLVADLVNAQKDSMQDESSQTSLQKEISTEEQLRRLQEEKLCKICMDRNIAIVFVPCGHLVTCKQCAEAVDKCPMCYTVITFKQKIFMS
Sequence of Cystic fibrosis transmembrane conductance regulator/Golgi-associated PDZ and coiled-coil motif-containing protein (P13569 whole entry, other chains not shown): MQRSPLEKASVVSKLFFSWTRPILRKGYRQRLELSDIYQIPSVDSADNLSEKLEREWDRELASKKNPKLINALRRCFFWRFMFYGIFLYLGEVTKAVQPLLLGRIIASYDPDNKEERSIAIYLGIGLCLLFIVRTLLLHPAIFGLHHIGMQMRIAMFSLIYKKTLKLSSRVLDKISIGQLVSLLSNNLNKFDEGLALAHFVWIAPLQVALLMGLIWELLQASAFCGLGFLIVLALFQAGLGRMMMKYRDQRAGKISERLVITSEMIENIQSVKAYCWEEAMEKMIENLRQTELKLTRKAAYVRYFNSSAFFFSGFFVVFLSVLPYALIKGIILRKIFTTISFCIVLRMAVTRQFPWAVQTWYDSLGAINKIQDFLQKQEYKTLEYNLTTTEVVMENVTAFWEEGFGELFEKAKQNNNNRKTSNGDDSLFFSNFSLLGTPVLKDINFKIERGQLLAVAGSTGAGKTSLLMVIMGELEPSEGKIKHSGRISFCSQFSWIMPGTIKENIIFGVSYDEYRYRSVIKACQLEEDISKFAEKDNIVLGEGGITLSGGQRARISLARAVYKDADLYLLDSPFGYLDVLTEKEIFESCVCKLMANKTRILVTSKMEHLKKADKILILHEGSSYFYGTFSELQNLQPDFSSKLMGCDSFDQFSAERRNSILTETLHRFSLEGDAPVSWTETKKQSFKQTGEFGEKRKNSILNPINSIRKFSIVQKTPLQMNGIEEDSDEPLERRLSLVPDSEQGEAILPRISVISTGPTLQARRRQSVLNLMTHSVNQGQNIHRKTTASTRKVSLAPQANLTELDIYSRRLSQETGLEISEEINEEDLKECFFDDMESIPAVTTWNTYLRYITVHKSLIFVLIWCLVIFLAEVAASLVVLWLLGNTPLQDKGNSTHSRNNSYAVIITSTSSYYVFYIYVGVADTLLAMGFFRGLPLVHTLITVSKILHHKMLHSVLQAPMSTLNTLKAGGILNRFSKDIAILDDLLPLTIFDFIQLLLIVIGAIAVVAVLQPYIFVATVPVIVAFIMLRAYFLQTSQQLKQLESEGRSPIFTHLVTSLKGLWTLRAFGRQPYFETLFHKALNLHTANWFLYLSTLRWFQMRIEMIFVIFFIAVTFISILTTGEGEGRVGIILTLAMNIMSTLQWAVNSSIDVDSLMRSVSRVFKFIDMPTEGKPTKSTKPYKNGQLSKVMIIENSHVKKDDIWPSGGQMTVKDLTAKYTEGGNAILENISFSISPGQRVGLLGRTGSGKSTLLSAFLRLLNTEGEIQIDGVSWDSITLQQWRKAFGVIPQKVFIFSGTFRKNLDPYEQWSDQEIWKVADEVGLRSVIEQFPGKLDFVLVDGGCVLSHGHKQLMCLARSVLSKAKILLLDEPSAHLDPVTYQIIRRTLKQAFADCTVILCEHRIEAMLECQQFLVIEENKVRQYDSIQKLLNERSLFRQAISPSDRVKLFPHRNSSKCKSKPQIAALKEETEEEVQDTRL

For orientation: IC50 means the concentration that gives 50% inhibition. Usually CC50 stands for the concentration giving 50% cytotoxicity. Turning to `CCc1nnc(NS(=O)(=O)c2ccc(NC(=S)NC(=O)/C=C/c3ccc(C(C)C)cc3)cc2)s1`, the IC50 in experiment [1] was > 20 µM (inactive); in [2], 1.59 µM (active). Besides, the CC50 in experiment [3] is 17.2 µM (active).
What is called EC50 is the concentration needed to bring the measured effect to its halfway point. For orientation: AC50 means the concentration at which the activity in the assay is half-maximal. With `O=C(/C=C/c1ccco1)Nc1ccc(Oc2ccccc2)cc1`, the values for the EC50 in [4] and in experiment [6] were 14.6 µM (active) and > 350 µM (not active), respectively. In experiment [5], the AC50 was 39.8 µM (inconclusive).
For the compound `CC1CC(=O)c2c(cc3c(-c4c(O)cc(O)c5c(O)c6c(cc45)OC(C)CC6=O)c(O)cc(O)c3c2O)O1` (stereo not drawn) [CEPHALOCHROMIN], the EC50 in experiment [7] was 26.7 µM (active); in experiment [8], 19.1 µM (active).
As to `COC(=O)C(O)(c1c(C)[nH]n(-c2ccccc2)c1=O)C(F)(F)F` (stereo not drawn), the IC50 in experiment [9] is 68.9 µM (inactive); in experiment [10], 2.43 µM (active).
Consider `COc1ccc(S(=O)(=O)Nc2cc(SCC(=O)O)c(O)c3ccccc23)cc1`, for which the AC50 in [11] is 126 µM (active); in experiment [12], 33.1 µM (active).
In the case of `O=C1C(Nc2ccc(O)cc2)=C/C(=N/S(=O)(=O)c2cccs2)c2ccccc21`, the results for the IC50 in experiment [13], in [14] and in [16] were > 66.6 µM (inactive), 4.23 µM (active) and 41.8 µM (active), respectively. Further, the CC50 in [15] was 2.59 µM (active). The values for the EC50 in [17] and in experiment [18] were 5.59 µM (active) and 0.236 µM (active), respectively.
